Assay results as given in patent US10112934B2, “(Cyano-dimethyl-methyl)-isoxazoles and -[1,3,4]thiadiazoles” (Centrexion Therapeutics Corporation, priority 2013, dated 2018).

Legend:
human MDR1 P-gp = human MDR1 P-gp (Homo sapiens (Human), UniProt P08183); assay: MDCK assay: efflux in MDCK cells transfected with the human MDR1 gene (assay 3); type: in vitro ADME; conditions: MDCK-MDR1 cell monolayers, pH 7.4, 37° C., read-out: MDCK efflux ratio (BA/AB)
Experimental: C. Assessment of Efflux in Madin-Darby Canine Kidney Cells Transfected with the Human MDR1 Gene (MDCK Assay) (Assay 3)
Apparent permeability coefficients (PE) of the compounds across the MDCK-MDR1 cell monolayers are measured (pH 7.4, 37° C.) in apical-to-basal (AB) and basal-to-apical (BA) transport direction. AB permeability (PEAB) represents drug absorption from the blood into the brain and BA permeability (PEBA) drug efflux from the brain back into the blood via both passive permeability as well as active transport mechanisms mediated by efflux and uptake transporters that are expressed on the MDCK-MDR1 cells, predominantly by the overexpressed human MDR1 P-gp. The compounds are assigned to permeability/absorption classes by comparison of the AB permeabilities with the AB permeabilities of reference compounds with known in vitro permeability and oral absorption in the human. Identical or similar permeabilities in both transport directions indicate passive permeation, vectorial permeability points to additional active transport mechanisms. Higher PEBA than PEAB indicates the involvement of active efflux mediated by MDR1 P-gp. Active transport is concentration-dependently saturable.
MDCK-MDR1 cells (1-2×10e5 cells/1 cm2 area) are seeded on filter inserts (Costar transwell polycarbonate or PET filters, 0.4 μm pore size) and cultured (DMEM) for 7 days. Subsequently, the MDR1 expression is boosted by culturing the cells with 5 mM sodium butyrate in full medium for 2 days. Compounds are dissolved in appropriate solvent (like DMSO, 1-20 mM stock solutions). Stock solutions are diluted with HTP-4 buffer (128.13 mM NaCl, 5.36 mM KCl, 1 mM MgSO4, 1.8 mM CaCl2, 4.17 mM NaHCO3, 1.19 mM Na2HPO4×7H2O, 0.41 mM NaH2PO4×H2O, 15 mM HEPES, 20 mM glucose, 0.25% BSA, pH 7.4) to prepare the transport solutions (0.1-300 μM compound, final DMSO<=0.5%). The transport solution (TL) is applied to the apical or basolateral donor side for measuring A-B or B-A permeability (3 filter replicates), respectively. The receiver side contains the same buffer as the donor side. Samples are collected at the start and end of experiment from the donor and at various time intervals for up to 2 hours also from the receiver side for concentration measurement by HPLC-MS/MS or scintillation counting. Sampled receiver volumes are replaced with fresh receiver solution.

human CB1R = human CB1R (Homo sapiens (Human), UniProt P21554); assay: CB1 cAMP (assay 2); type: cell-based; conditions: CHO cells expressing human CB1R; inhibition of forskolin-stimulated cAMP
Sequence of human CB1R (P21554 whole entry): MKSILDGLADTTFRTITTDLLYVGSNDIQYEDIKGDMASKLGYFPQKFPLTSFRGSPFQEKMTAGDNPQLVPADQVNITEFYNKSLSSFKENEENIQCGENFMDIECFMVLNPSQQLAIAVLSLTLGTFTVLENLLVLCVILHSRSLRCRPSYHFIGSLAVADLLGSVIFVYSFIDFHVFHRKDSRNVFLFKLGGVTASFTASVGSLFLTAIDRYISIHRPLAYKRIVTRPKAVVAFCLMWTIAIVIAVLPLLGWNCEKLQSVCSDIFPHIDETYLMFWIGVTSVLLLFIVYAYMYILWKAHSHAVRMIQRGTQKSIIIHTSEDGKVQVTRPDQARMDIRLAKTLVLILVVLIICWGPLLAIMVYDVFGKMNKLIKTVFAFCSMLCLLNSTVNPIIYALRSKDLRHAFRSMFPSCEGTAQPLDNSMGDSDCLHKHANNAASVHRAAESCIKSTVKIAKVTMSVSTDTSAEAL

Sequence of human MDR1 P-gp (P08183 whole entry): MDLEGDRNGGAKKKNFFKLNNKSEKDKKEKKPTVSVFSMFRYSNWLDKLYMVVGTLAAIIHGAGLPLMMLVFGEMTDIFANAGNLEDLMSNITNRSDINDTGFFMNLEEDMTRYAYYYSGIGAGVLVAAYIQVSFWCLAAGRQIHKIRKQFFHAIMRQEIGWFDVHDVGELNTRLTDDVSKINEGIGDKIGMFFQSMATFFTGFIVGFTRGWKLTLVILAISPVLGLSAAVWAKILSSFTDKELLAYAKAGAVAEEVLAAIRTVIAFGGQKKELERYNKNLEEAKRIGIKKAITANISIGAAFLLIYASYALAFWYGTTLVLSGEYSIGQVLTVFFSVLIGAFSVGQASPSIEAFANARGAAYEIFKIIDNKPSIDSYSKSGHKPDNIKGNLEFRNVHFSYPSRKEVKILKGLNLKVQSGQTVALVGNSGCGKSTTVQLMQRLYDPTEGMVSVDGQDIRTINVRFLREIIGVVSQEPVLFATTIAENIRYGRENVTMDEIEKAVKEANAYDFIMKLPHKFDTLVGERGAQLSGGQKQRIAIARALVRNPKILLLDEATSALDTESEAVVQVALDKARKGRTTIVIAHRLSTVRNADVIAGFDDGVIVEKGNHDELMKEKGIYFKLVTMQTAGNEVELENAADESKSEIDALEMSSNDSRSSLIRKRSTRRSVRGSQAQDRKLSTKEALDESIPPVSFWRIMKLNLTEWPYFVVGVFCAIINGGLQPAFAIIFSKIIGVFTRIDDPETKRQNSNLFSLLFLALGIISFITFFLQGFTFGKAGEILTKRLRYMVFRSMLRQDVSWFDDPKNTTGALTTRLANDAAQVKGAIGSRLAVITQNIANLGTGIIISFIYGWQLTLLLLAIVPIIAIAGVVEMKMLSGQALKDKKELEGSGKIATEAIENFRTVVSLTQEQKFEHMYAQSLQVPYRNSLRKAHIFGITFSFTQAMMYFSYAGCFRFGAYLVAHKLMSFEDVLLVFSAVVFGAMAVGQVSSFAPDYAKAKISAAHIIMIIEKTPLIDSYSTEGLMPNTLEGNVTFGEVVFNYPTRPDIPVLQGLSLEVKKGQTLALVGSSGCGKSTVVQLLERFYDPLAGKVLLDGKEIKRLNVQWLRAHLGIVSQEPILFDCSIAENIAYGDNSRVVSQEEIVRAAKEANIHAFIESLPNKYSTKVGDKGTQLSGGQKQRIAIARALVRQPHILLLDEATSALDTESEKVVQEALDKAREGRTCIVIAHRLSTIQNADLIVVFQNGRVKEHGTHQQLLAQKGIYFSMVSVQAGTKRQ

Row | Structure (SMILES) | efflux ratio (human MDR1 P-gp) | EC50 (human CB1R) [µM]
1 | CC(C)(CO)c1cc(NC(=O)C(C)(C)S(=O)(=O)CC2CCOCC2)on1 [Example 1 in WO2010036630] | 16 | > 50
2 | CC(C)(C#N)c1cc(NC(=O)C(C)(C)S(=O)(=O)CCCC(F)(F)F)on1 [Example 1, N-[3-(Cyano-dimethyl-methyl)-isoxazol-5-yl]-2-methyl-2-(4,4,4-trifluoro-butane-1-sulfonyl)-propionamide] | 2.2 | –
3 | CC(C)(CO)c1cc(NC(=O)C(C)(C)S(=O)(=O)C2CCOCC2)on1 [Example 2 in WO2010036630] | 7.4 | –
4 | CC(C)(C#N)c1cc(NC(=O)C(C)(C)S(=O)(=O)CC2CCOCC2)on1 [Example 2, N-[3-(Cyano-dimethyl-methyl)-isoxazol-5-yl]-2-methyl-2-(tetrahydro-pyran-4-ylmethanesulfonyl)-propionamide] | 6.5 | –
5 | CC(C)(C#N)c1cc(NC(=O)C(C)(C)S(=O)(=O)C2CCOCC2)on1 [Example 3] | 2.5 | –
6 | CN(CC1CCOCC1)C(C)(C)C(=O)Nc1cc(C(C)(C)C#N)no1 [Example 4] | 0.75 | –
7 | CN(C1CCN(S(C)(=O)=O)CC1)C(C)(C)C(=O)Nc1cc(C(C)(C)C#N)no1 [Example 5] | 5.1 | –
8 | CN(CC1CCOCC1)C(C)(C)C(=O)Nc1cc(C(C)(C)CO)no1 [Example 7 in WO2010147792] | 1.2 | –
9 | CN(CC1CCOCC1)C(C)(C)C(=O)Nc1nnc(C(C)(C)C#N)s1 [Example 7, N-[5-(Cyano-dimethyl-methyl)-[1,3,4]thiadiazol-2-yl]-2-methyl-2-[methyl-(tetrahydro-pyran-4-ylmethyl)-amino]-propionamide] | 2.1 | –
10 | CN(C1CCN(S(C)(=O)=O)CC1)C(C)(C)C(=O)Nc1nnc(C(C)(C)C#N)s1 [Example 8] | 16 | –
11 | COCC(C)(C)c1cc(NC(=O)C(C)(C)S(=O)(=O)CC2CCOCC2)on1 [Example 17 in WO2010036630] | 4.8 | –
12 | CN(CC1CCOCC1)C(C)(C)C(=O)Nc1nnc(C(C)(C)CO)s1 [Example 30 in WO2010147792] | 5.2 | –
13 | COCC(C)(C)c1cc(NC(=O)C(C)(C)S(=O)(=O)C2CCOCC2)on1 [Example 38 in WO2010036630] | 2.3 | 50
14 | COCC(C)(C)c1cc(NC(=O)C(C)(C)N(C)CC2CCOCC2)on1 [Example 46 in WO2010147792] | 0.63 | –
15 | CN(C1CCN(S(C)(=O)=O)CC1)C(C)(C)C(=O)Nc1cc(C(C)(C)CO)no1 [Example 47 in WO2010147792] | 14 | –
16 | CC(C)(O)c1cc(NC(=O)C(C)(C)S(=O)(=O)C2CCOCC2)on1 [Example 133 WO2010036630] | 4.7 | –
